# In patent US20130267484A1, “TREATMENT OF RHEUMATOID ARTHRITIS WITH MASITINIB” (AB SCIENCE, priority 2010, published 2013):
# What was measured:
# c-kit = details: cited from earlier work
# Lyn = Lyn (Homo sapiens, UniProt P07948); details: cited from earlier work
# ABL = ABL (Homo sapiens, UniProt P00519); details: at therapeutic doses; cited from earlier work
# PDGFR = details: cited from earlier work
# [1] = system: DMARD-refractory active RA; assay: Study of masitinib in combination with MTX in DMARD-refractory active RA; assay type: in vivo, Human
# Description: A smaller second study was also conducted to evaluate the safety and efficacy of masitinib in combination with MTX in the treatment of DMARD-refractory active RA. […] (1) MTX; (2) any DMARD including anti-TNFα if patients previously failed MTX; or (3) MTX in combination with any DMARD including anti-TNFα.
# Src = Src (Homo sapiens, UniProt P12931); details: at therapeutic doses; cited from earlier work
# Sequence of Src (P12931 whole entry): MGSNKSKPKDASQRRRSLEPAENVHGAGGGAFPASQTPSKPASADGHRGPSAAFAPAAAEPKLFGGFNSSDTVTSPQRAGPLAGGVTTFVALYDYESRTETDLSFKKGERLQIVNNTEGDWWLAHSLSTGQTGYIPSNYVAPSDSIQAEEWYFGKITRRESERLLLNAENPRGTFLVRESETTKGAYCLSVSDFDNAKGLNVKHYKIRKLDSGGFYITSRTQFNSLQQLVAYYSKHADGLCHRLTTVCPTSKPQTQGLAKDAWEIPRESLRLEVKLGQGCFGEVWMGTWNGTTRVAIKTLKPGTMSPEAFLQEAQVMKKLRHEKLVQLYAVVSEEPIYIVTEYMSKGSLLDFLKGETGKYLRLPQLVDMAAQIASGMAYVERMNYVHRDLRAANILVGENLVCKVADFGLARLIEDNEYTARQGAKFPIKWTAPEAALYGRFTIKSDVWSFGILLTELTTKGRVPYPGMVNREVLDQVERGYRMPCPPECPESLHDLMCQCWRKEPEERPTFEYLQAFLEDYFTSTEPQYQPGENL
# [2] = week 12, total ITT population (n=8)
# Sequence of ABL (P00519 whole entry): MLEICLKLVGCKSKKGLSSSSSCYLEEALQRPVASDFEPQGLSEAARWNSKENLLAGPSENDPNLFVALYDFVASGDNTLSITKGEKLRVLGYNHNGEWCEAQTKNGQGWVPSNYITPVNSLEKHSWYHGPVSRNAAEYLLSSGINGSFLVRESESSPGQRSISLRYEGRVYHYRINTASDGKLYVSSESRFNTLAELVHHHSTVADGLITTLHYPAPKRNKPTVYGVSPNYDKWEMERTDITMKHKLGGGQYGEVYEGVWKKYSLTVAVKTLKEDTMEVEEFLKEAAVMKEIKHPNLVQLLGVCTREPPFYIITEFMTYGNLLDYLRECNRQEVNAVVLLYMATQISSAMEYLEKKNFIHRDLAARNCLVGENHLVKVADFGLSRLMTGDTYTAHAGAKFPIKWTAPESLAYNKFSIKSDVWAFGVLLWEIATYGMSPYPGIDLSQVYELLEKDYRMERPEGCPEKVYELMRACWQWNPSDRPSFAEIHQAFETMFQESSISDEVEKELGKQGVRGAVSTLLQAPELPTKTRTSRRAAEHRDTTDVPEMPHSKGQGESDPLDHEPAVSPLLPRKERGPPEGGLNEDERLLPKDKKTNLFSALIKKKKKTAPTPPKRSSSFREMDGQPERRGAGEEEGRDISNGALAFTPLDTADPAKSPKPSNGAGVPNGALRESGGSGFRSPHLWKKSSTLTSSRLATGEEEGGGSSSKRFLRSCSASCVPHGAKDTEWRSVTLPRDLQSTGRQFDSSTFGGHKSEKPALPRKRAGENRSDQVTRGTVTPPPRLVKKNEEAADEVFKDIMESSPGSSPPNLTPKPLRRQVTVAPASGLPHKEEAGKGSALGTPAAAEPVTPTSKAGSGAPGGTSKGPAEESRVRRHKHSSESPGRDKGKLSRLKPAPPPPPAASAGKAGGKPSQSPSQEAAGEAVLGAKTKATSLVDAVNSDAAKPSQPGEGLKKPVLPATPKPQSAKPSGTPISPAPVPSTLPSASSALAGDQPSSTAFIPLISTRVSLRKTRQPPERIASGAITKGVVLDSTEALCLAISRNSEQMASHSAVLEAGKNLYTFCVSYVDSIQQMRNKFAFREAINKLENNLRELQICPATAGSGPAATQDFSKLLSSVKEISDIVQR
# Sequence of Lyn (P07948 whole entry): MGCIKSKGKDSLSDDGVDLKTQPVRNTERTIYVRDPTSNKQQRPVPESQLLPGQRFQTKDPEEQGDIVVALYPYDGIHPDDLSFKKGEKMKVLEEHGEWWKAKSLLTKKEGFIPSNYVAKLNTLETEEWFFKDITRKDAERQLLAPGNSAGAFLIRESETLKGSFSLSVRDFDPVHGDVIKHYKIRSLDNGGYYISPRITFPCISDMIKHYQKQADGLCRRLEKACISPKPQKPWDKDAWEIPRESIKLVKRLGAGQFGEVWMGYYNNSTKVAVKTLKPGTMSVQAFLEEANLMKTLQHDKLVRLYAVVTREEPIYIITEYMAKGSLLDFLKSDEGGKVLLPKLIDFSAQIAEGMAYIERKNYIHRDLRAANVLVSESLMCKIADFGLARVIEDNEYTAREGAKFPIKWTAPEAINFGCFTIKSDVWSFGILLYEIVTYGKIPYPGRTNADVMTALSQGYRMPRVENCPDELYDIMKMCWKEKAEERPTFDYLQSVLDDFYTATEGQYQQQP
compound,measurement,setting,value
"Cc1ccc(NC(=O)c2ccc(CN3CCN(C)CC3)cc2)cc1Nc1nc(-c2cccnc2)cs1 [masitinib, 4-(4-methylpiperazin-1-ylmethyl)-N-[4-methyl-3-(4-pyridin-3ylthiazol-2-ylamino)phenyl]benzamide]",Effect on wild-type and juxtamembrane-mutated c-Kit receptors,c-kit,strong inhibitory effect
same,Inhibition of c-kit,c-kit,selectively inhibiting
same,Inhibition of Lyn,Lyn,selectively inhibiting
same,Inhibition of ABL,ABL,without inhibiting
same,Inhibition of PDGFR,PDGFR,selectively inhibiting
same,Patients achieving ACR70 at week 4 maintained up to week 12,"[1]; 6 mg/kg/day, had failed anti-TNFα",One
same,Patients achieving ACR20 at week 8 through 12,[1]; 3 of 8 patients evaluable,One
same,Patients reaching ACR20 at week 12,[1]; 3 of 8 patients evaluable,One
same,Patients with CRP score improvement of between 25 and 50%,[1]; week 12,two
same,Patients with CRP improvement greater than 50%,"[1]; week 12, 6 mg/kg/day",one
same,Asthenia assessment change (mean),[1]; [2],−19.6%
same,HAQ assessment improvement,[1]; [2],29.5%
same,Hamilton Score improvement,[1]; [2],75.7%
same,Improvement of general patient health,[1]; [2],+92.2%
same,Mean FIS Physical and Social score,[1]; [2],slightly decreased
same,Pain assessment change (mean),[1]; [2],−72.2%
same,Inhibition of Src,Src,without inhibiting
